ChEMBL document CHEMBL5360573, “Discovery of novel tryptamine derivatives as GluN2B subunit-containing NMDA receptor antagonists via pharmacophore-merging strategy with orally available therapeutic effect of cerebral ischemia” (Eur J Med Chem, 2023)
Activity calls are given as the source filed them. The calls are words filed in the database; no cut-off is given here.

Key:
[1] = system: SH-SY5Y; assay: Neuroprotective activity against NMDA-induced cell injury in human SH-SY5Y cells assessed as cell viability at 0.05 uM incubated for 6 hrs followed by NMDA treatment for 0.5 hrs and subsequent replacement of fresh medium without compounds by MTT assay relative to control; type: functional; details: time 6.5 hrs, read-out: Activity
[2] = system: SH-SY5Y; assay: Neuroprotective activity against NMDA-induced cell injury in human SH-SY5Y cells assessed as cell viability at 0.5 uM incubated for 6 hrs followed by NMDA treatment for 0.5 hrs and subsequent replacement of fresh medium without compounds by MTT assay relative to control; type: functional; details: time 6.5 hrs, read-out: Activity
[3] = system: SH-SY5Y; assay: Neuroprotective activity against NMDA-induced cell injury in human SH-SY5Y cells assessed as cell viability at 5 uM incubated for 6 hrs followed by NMDA treatment for 0.5 hrs and subsequent replacement of fresh medium without compounds by MTT assay relative to control; type: functional; details: time 6.5 hrs, read-out: Activity
[4] = system: Mus musculus; assay: Neuroprotective activity against ICV-ET1-induced cerebral ischemia injury C57BL/6J mouse model assessed as improvement in swimming distance at 20 to 80 mg/kg, po administered daily measured on day 14 to 19 by Morris water maze test; type: functional, organism-based; details: dose 20-80 mg/kg, time 14-19 day
[5] = Metabolic stability in human plasma assessed as compound remaining at 2 uM measured after 10 mins by LC-MS/MS analysis; type: ADME, cell-free; details: read-out: Stability
[6] = AUC (0 to t) in C57 mouse at 1 mg/kg, iv measured for 20 mins by LC-MS/MS analysis; type: ADME, organism-based; parameters: time 20 min, dose 1 mg/kg, route iv; details: in vivo
[7] = AUC (0 to t) in C57 mouse at 10 mg/kg, po measured for 20 mins by LC-MS/MS analysis; type: ADME, organism-based; parameters: time 20 min, dose 10 mg/kg, route po; details: in vivo
[8] = Half life in C57 mouse at 10 mg/kg, po measured for 20 mins by LC-MS/MS analysis; type: ADME, organism-based; details: in vivo
[9] = system: Mus musculus; assay: Neuroprotective activity against ICV-ET1-induced cerebral ischemia injury C57BL/6J mouse model assessed as increase in preferential index at 20 to 80 mg/kg, po administered daily measured on day 11 to 13 by novel object recognition test; type: functional, organism-based; details: dose 20-80 mg/kg, time 11-13 day
[10] = Metabolic stability in human plasma assessed as compound remaining at 2 uM measured immediately by LC-MS/MS analysis; type: ADME, cell-free; details: read-out: Stability
[11] = MRT (0 to infinity) in C57 mouse at 1 mg/kg, iv measured for 20 mins by LC-MS/MS analysis; type: ADME, organism-based; details: in vivo
[12] = MRT (0 to t) in C57 mouse at 10 mg/kg, po measured for 20 mins by LC-MS/MS analysis; type: ADME, organism-based; details: in vivo
[13] = Metabolic stability in human plasma assessed as compound remaining at 2 uM measured after 30 mins by LC-MS/MS analysis; type: ADME, cell-free; details: read-out: Stability
[14] = Tmax in C57 mouse at 10 mg/kg, po measured for 20 mins by LC-MS/MS analysis; type: ADME, organism-based; details: in vivo
[15] = Tmax in C57 mouse at 1 mg/kg, iv measured for 20 mins by LC-MS/MS analysis; type: ADME, organism-based; details: in vivo
[16] = molecular target: Glutamate receptor ionotropic, NMDA 2B (Homo sapiens) (UniProt Q13224); assay: Antagonist activity against GluN2B NMDAR in human SH-SY5Y cells assessed as increase in NMDA-induced downregulation of phosphorylated ERK1/2 at 0.05 to 5 uM incubated for 6 hrs followed by NMDA treatment for 0.5 hrs and subsequent replacement of fresh medium without compounds by Western blot analysis; type: cell-based; details: filed as antagonist, dose 0.05-5 µM, time 6.5 hrs
[17] = MRT (0 to infinity) in C57 mouse at 10 mg/kg, po measured for 20 mins by LC-MS/MS analysis; type: ADME, organism-based; details: in vivo
[18] = Metabolic stability in human plasma assessed as compound remaining at 2 uM measured after 60 mins by LC-MS/MS analysis; type: ADME, cell-free; details: read-out: Stability
[19] = Metabolic stability in human plasma assessed as compound remaining at 2 uM measured after 120 mins by LC-MS/MS analysis; type: ADME, cell-free; details: read-out: Stability
[20] = AUC (0 to infinity) in C57 mouse at 10 mg/kg, po measured for 20 mins by LC-MS/MS analysis; type: ADME, organism-based; parameters: dose 10 mg/kg, time 20 min, route po; details: in vivo
[21] = Cmax in C57 mouse at 1 mg/kg, iv measured for 20 mins by LC-MS/MS analysis; type: ADME, organism-based; parameters: dose 1 mg/kg, time 20 min, route iv; details: in vivo
[22] = molecular target: Glutamate receptor ionotropic, NMDA 2B (Homo sapiens) (UniProt Q13224); assay: Antagonist activity against GluN2B NMDAR in human SH-SY5Y cells assessed as reduction in NMDA-induced intracellular influx at 5 uM incubated for 6 hrs followed by replacement of fresh medium without compounds and subsequent NMDA treatment by Fluo-4AM dye based calcium mobilization assay; type: cell-based; details: filed as antagonist
[23] = Cmax in C57 mouse at 10 mg/kg, po measured for 20 mins by LC-MS/MS analysis; type: ADME, organism-based; parameters: dose 10 mg/kg, time 20 min, route po; details: in vivo
[24] = Half life in C57 mouse at 1 mg/kg, iv measured for 20 mins by LC-MS/MS analysis; type: ADME, organism-based; details: in vivo
[25] = system: Mus musculus; assay: Neuroprotective activity against ICV-ET1-induced cerebral ischemia injury C57BL/6J mouse model assessed as improvement in escape latency at 20 to 80 mg/kg, po administered daily measured on day 14 to 19 by Morris water maze test; type: functional, organism-based; details: dose 20-80 mg/kg, time 14-19 day
[26] = system: Mus musculus; assay: Neuroprotective activity against ICV-ET1-induced cerebral ischemia injury C57BL/6J mouse model assessed as improvement of spontaneous alternation behavior administered orally daily for 10 days by Y-maze test; type: functional, organism-based; details: dose 20-80 mg/kg, route po, time 10.0 day
[27] = AUC (0 to infinity) in C57 mouse at 1 mg/kg, iv measured for 20 mins by LC-MS/MS analysis; type: ADME, organism-based; parameters: dose 1 mg/kg, time 20 min, route iv; details: in vivo
[28] = MRT (0 to t) in C57 mouse at 1 mg/kg, iv measured for 20 mins by LC-MS/MS analysis; type: ADME, organism-based; details: in vivo
[29] = Metabolic stability in human plasma assessed as half life at 2 uM by LC-MS/MS analysis; type: ADME, cell-free
[30] = Clearance in C57 mouse at 1 mg/kg, iv measured for 20 mins by LC-MS/MS analysis; type: ADME, organism-based; details: in vivo
[31] = Oral bioavailability in C57 mouse at 10 mg/kg measured for 20 mins by LC-MS/MS analysis; type: ADME, organism-based; details: in vivo

Glutamate receptor ionotropic, NMDA 2B (Homo sapiens), sequence (Q13224 27-1484 limits assumed): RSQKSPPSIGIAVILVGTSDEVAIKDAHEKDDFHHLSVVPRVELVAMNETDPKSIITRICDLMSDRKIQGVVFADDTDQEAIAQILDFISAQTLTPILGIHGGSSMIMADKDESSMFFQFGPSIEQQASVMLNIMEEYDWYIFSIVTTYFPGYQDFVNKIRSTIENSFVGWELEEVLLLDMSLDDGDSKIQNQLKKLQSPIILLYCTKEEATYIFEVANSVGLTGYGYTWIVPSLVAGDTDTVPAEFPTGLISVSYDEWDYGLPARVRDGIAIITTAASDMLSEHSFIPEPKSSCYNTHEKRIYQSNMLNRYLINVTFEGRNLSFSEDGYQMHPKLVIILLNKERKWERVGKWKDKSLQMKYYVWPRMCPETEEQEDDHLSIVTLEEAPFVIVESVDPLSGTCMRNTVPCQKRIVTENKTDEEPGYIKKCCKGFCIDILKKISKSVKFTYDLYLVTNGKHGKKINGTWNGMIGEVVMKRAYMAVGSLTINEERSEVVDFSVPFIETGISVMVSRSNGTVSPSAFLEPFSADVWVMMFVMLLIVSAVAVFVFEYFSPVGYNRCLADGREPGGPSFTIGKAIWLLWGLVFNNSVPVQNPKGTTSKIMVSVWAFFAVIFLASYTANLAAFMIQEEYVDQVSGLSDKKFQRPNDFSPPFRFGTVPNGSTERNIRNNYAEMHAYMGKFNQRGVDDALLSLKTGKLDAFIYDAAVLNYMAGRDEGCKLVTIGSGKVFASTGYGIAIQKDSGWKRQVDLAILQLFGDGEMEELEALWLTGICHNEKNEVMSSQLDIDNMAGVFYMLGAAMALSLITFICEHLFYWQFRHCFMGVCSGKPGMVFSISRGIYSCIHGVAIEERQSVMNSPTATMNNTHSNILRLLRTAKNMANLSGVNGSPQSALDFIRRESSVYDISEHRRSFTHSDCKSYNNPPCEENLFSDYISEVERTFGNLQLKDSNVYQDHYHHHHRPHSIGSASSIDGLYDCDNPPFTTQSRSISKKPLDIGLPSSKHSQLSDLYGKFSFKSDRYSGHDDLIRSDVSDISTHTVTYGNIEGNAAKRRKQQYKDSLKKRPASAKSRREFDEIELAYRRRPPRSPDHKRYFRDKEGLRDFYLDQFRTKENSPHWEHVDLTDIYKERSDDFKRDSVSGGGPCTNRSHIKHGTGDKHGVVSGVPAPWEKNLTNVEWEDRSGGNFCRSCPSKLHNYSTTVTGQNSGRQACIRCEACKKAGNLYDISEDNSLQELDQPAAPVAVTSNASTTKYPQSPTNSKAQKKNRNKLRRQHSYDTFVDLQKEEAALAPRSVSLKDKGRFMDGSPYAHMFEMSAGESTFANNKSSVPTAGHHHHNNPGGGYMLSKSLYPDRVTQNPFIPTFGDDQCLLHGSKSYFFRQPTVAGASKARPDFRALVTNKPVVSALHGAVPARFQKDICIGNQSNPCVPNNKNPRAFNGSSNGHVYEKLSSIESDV

Structure (SMILES): O=C(/C=C/c1ccc(O)cc1)NCCc1cn(Cc2ccccc2)c2ccccc12
- viability at 0.05 µM [1]: 33%
- viability at 0.5 µM [2]: 42.8%
- viability at 5 µM [3]: 52.8%

Structure (SMILES): O=C(Cc1ccc(O)cc1)NCCc1cn(Cc2ccccc2)c2ccccc12
- viability at 0.05 µM [1]: 21.1%
- viability at 0.5 µM [2]: 42.2%
- viability at 5 µM [3]: 41%

Structure (SMILES): CCn1cc(CCNC(=O)/C=C/c2ccc(O)cc2)c2ccccc21
- viability at 0.05 µM [1]: 19.9%
- viability at 0.5 µM [2]: 22.4%
- viability at 5 µM [3]: 19.9%

Structure (SMILES): O=C(/C=C/c1ccc(O)cc1)NCCc1cn(CCCc2ccccc2)c2ccccc12
- viability at 0.05 µM [1]: 20.1%
- viability at 0.5 µM [2]: 19.3%
- viability at 5 µM [3]: 12.5%

Structure (SMILES): CCCn1cc(CCNC(=O)/C=C/c2ccc(O)cc2)c2ccccc21
- viability at 0.05 µM [1]: 17.6%
- viability at 0.5 µM [2]: 13.5%
- viability at 5 µM [3]: 25.1%

Structure (SMILES): O=C(/C=C/c1ccc(O)cc1)NCCc1cn(Cc2ccccc2F)c2ccccc12
- viability at 0.05 µM [1]: 32.4%
- viability at 0.5 µM [2]: 32.4%
- viability at 5 µM [3]: 24.7%

Structure (SMILES): CCCCn1cc(CCNC(=O)/C=C/c2ccc(O)cc2)c2ccccc21
- viability at 0.05 µM [1]: 24.3%
- viability at 0.5 µM [2]: 24.1%
- viability at 5 µM [3]: 19.3%

Structure (SMILES): COc1ccc(Cn2cc(CCNC(=O)/C=C/c3ccc(O)cc3)c3ccccc32)cc1
- viability at 0.05 µM [1]: 18.6%
- viability at 0.5 µM [2]: 24.8%
- viability at 5 µM [3]: 30.9%

Structure (SMILES): CC(C)Cn1cc(CCNC(=O)/C=C/c2ccc(O)cc2)c2ccccc21
- viability at 0.05 µM [1]: 24.9%
- viability at 0.5 µM [2]: 15.7%
- viability at 5 µM [3]: 14.4%

Structure (SMILES): O=C(/C=C/c1ccc(O)cc1)NCCc1cn(Cc2cccc(Br)c2)c2ccccc12
- Activity [4]: Active
- remaining at 10 min, 2 µM [5]: 97.5%
- AUC(0-t) at 20 min [6]: 860 ng·h/mL
- AUC(0-t) at 20 min [7]: 261 ng·h/mL
- half-life [8]: 66.6 min
- Activity [9]: Active
- remaining at 0 min, 2 µM [10]: 100%
- MRT inf [11]: 27 min
- MRT last at 20 min [12]: 74.4 min
- viability at 0.05 µM [1]: 35.7%
- remaining at 0.5 h, 2 µM [13]: 98.8%
- Tmax [14]: 30 min
- Tmax [15]: 4.98 min
- Activity [16]: Active
- MRT inf [17]: 85.2 min
- remaining at 1 h, 2 µM [18]: 100%
- remaining at 2 h, 2 µM [19]: 100%
- viability at 0.5 µM [2]: 48.8%
- AUC(0-inf) [20]: 269 ng·h/mL
- Cmax [21]: 1910 ng/mL
- Activity [22]: Active
- Cmax [23]: 182 ng/mL
- half-life [24]: 40.2 min
- viability at 5 µM [3]: 55.8%
- Activity [25]: Active
- Activity [26]: Dose-Dependent Effect
- AUC(0-inf) [27]: 863 ng·h/mL
- MRT last at 20 min [28]: 26.4 min
- half-life at 2 µM [29]: > 289 min
- clearance [30]: 20.4 mL/min/kg
- bioavailability [31]: 3.12%

Structure (SMILES): O=C(/C=C/c1ccc(O)cc1)NCCc1cn(CCc2ccccc2)c2ccccc12
- viability at 0.05 µM [1]: 25.9%
- viability at 0.5 µM [2]: 10.1%
- viability at 5 µM [3]: 8%

Structure (SMILES): O=C(/C=C/c1ccc(O)cc1)NCCc1cn(Cc2ccc(F)cc2)c2ccccc12
- viability at 0.05 µM [1]: 35.8%
- viability at 0.5 µM [2]: 49.8%
- viability at 5 µM [3]: 20.8%

Structure (SMILES): O=C(CCc1ccc(O)cc1)NCCc1cn(Cc2ccccc2)c2ccccc12
- viability at 0.05 µM [1]: 45.3%
- viability at 0.5 µM [2]: 50.9%
- viability at 5 µM [3]: 52.1%
